# What was measured:
# 112091 = 112091 expression in livers of African Green Monkeys, cholesterol; format: in vivo
# 2569654 mRNA [1] = assay: 2569654 mRNA in livers of ApoE knock out mice with cholesterol feeding (TaqMan); format: in vivo; conditions: livers of ApoE knock out (KO) mice with cholesterol feeding
# Text: (§1) This example describes the TaqMan™ procedure. The Taqman™ procedure is a quantitative, reverse transcription PCR-based approach for detecting mRNA. The RT-PCR reaction exploits the 5′ nuclease activity of AmpliTaq Gold™ DNA Polymerase to cleave a TaqMan™ probe during PCR. Briefly, cDNA was generated from the samples of interest, e.g., heart, kidney, liver, skeletal muscle, and various vessels, and used as the starting material for PCR amplification. In addition to the 5′ and 3′ gene-specific primers, a gene-specific oligonucleotide probe (complementary to the region being amplified) was included in the reaction (i.e., the Taqman™ probe). […]
# (§2) During the PCR reaction, cleavage of the probe separates the reporter dye and the quencher dye, resulting in increased fluorescence of the reporter. Accumulation of PCR products is detected directly by monitoring the increase in fluorescence of the reporter dye. When the probe is intact, the proximity of the reporter dye to the quencher dye results in suppression of the reporter fluorescence. […]
# 6169 mRNA [2] = assay: 6169 mRNA in liver of African Green Monkeys, lipid feeding (TaqMan); format: in vivo; conditions: feeding / in the diet
# 17729 mRNA = 17729 mRNA in ApoE knockout mouse models, cholesterol feeding (TaqMan); format: in vivo
# Text: as §1, §2
# 19319 mRNA = 19319 mRNA in ApoE knock-out mice, cholesterol (TaqMan); format: in vivo
# Text: as §1, §2
# 9325 mRNA = 9325 mRNA in liver of ApoE knockout mice, cholesterol feeding (TaqMan); format: in vivo; conditions: two and six months of cholesterol feeding of ApoE knockout mice
# Text: as §1, §2
# 9235 mRNA = 9235 mRNA in livers of African Green Monkeys, cholesterol (TaqMan); format: in vivo; conditions: p=0.09
# Text: as §1, §2
# 554 mRNA = 554 mRNA in livers of African Green Monkeys, cholesterol; format: in vivo
# 54946 mRNA = 54946 mRNA in livers of Apo E knock out mice, cholesterol (microarray or RT-PCR); format: in vivo; conditions: livers of Apo E knock out mice relative to wild-type controls, p=0.001
# 10653 mRNA [3] = assay: 10653 mRNA in liver of ApoE knockout mice, cholesterol feeding (TaqMan); format: in vivo; conditions: two and six months of cholesterol feeding of ApoE knockout mice
# Text: as §1, §2
# 43969 = 43969 expression in livers of ApoE knock-out mice administered cholesterol (TaqMan); format: in vivo
# Text: as §1, §2
# 10653 mRNA [4] = assay: 10653 mRNA in livers of African Green Monkeys, cholesterol (TaqMan); format: in vivo; conditions: p=0.05
# Text: as §1, §2
# 2569654 mRNA [5] = assay: 2569654 mRNA in marmoset models (TaqMan); format: in vivo
# Text: (§3) This example describes the TaqMan™ procedure. The Taqman™ procedure is a quantitative, reverse transcription PCR-based approach for detecting mRNA. The RT-PCR reaction exploits the 5′ nuclease activity of AmpliTaq Gold™ DNA Polymerase to cleave a TaqMan™ probe during PCR. Briefly, cDNA was generated from the samples of interest, e.g., heart, kidney, liver, skeletal muscle, and various vessels, and used as the starting material for PCR amplification. In addition to the 5′ and 3′ gene-specific primers, a gene-specific oligonucleotide probe (complementary to the region being amplified) was included in the reaction (i.e., the Taqman™ probe). The TaqMan™ probe includes the oligonucleotide with a fluorescent reporter dye covalently linked to the 5′ end of the probe (such as FAM (6-carboxyfluorescein), TET (6-carboxy4,7,2′,7′-tetrachlorofluorescein), JOE (6-carboxy-4,5-dichloro-2,7-dimethoxyfluorescein), or VIC) and a quencher dye (TAMRA (6-carboxy-N,N,N′,N′-tetramethylrhodamine) at the 3′ end of the probe.
# (§4) During the PCR reaction, cleavage of the probe separates the reporter dye and the quencher dye, resulting in increased fluorescence of the reporter. Accumulation of PCR products is detected directly by monitoring the increase in fluorescence of the reporter dye. When the probe is intact, the proximity of the reporter dye to the quencher dye results in suppression of the reporter fluorescence. During PCR, if the target of interest is present, the probe specifically anneals between the forward and reverse primer sites. The 5′-3′ nucleolytic activity of the AmpliTaq™ Gold DNA Polymerase cleaves the probe between the reporter and the quencher only if the probe hybridizes to the target. The probe fragments are then displaced from the target, and polymerization of the strand continues. The 3′ end of the probe is blocked to prevent extension of the probe during PCR. […] RNA was prepared using the trizol method and treated with DNase to remove contaminating genomic DNA. cDNA was synthesized using standard techniques.
# 3533 mRNA = 3533 mRNA regulation by lipid lowering drugs (TaqMan)
# Text: as §3, §4
# 9462 mRNA = 9462 mRNA regulation by lipid lowering drugs (TaqMan)
# Text: as §1, §2
# 10102 mRNA = 10102 mRNA regulation by lipid lowering drugs (TaqMan)
# 10653 mRNA [6] = assay: 10653 mRNA in livers of marmosets treated with lipid-lowering therapies (TaqMan); format: in vivo
# 8701 mRNA = 8701 mRNA in livers of marmosets treated with lipid-lowering therapies (TaqMan); format: in vivo
# 7301 mRNA = 7301 mRNA in livers of marmosets treated with lipid-lowering therapies (TaqMan); format: in vivo
# Text: as §1, §2
# 9123 mRNA = 9123 mRNA in livers of marmosets treated with lipid-lowering therapies (TaqMan); format: in vivo
# Text: as §1, §2
# [7] = humans, betaine supplemented diets vs control group; cited from earlier work
# RAW 264.7 = conditions: RAW 264.7, through down-regulating the activation of Akt; cited from earlier work
# [8] = target: 1722 (Protein Kinase C mu or PKD) (Homo sapiens, UniProt Q15139); conditions: Biochem Pharmacol. 2001; cited from earlier work
# 1722 (Protein Kinase C mu or PKD), sequence (Q15139 whole entry): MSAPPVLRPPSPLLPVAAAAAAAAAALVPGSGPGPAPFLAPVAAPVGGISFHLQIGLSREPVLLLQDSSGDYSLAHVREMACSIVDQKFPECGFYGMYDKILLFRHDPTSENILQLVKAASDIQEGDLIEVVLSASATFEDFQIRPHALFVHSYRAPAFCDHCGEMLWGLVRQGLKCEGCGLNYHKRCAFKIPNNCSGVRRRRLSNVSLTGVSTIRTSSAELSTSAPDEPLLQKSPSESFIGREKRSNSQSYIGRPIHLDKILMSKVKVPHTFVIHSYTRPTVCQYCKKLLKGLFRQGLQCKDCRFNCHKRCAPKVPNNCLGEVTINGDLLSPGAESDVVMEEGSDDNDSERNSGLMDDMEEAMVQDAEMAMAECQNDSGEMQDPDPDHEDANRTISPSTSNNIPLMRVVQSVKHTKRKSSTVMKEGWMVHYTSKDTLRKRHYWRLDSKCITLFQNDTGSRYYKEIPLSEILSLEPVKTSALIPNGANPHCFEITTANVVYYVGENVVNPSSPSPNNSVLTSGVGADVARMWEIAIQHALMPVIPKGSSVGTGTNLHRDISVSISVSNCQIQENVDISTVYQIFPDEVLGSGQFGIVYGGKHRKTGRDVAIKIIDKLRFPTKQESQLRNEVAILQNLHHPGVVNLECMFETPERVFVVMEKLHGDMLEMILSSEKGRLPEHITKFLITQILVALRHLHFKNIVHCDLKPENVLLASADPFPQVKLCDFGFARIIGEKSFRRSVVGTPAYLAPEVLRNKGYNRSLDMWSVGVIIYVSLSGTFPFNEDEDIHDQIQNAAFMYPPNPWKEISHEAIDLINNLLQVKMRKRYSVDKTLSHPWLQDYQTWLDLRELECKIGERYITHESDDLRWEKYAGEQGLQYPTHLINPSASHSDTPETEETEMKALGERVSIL
# glycine cleavage system = conditions: cited from earlier work
# 1261 mRNA = 1261 mRNA in statically cultured or shear-stressed cells (TaqMan); format: cell-based
# Text: as §3, §4
# 32345 mRNA = 32345 mRNA in HUVECs (TaqMan); format: cell-based, human
# Text: as §1, §2
# 6169 mRNA [9] = assay: 6169 mRNA in human primary hepatocytes (TaqMan); format: cell-based
# Text: as §1, §2
# isolated rat arterioles = conditions: compared to basal tone; cited from earlier work
# 9380 mRNA = 9380 mRNA in livers of marmosets (TaqMan); format: in vivo
# 2552 mRNA = 2552 mRNA in marmoset livers (TaqMan); format: in vivo
molecule,measurement,setting,value
CC(C)CCC[C@@H](C)[C@H]1CC[C@H]2[C@@H]3CC=C4C[C@@H](O)CC[C@]4(C)[C@H]3CC[C@]12C [cholesterol],112091 expression,112091,down-regulated
same,2569654 mRNA expression,2569654 mRNA [1],significantly downregulated
same,6169 mRNA downregulated,6169 mRNA [2],1.3 fold
same,17729 mRNA expression,17729 mRNA,downregulated
same,19319 mRNA expression,19319 mRNA,downregulated
same,9325 mRNA downregulated,9325 mRNA,1.8 fold
same,9235 mRNA downregulated,9235 mRNA,1.3 fold
same,554 mRNA expression,554 mRNA,down-regulated
same,54946 mRNA downregulated,54946 mRNA,0.62 fold
same,10653 mRNA downregulated,10653 mRNA [3],1.3 fold
same,43969 expression,43969,downregulated
same,10653 mRNA downregulated,10653 mRNA [4],1.5 fold
N[C@@H](Cc1cc(I)c(Oc2ccc(O)c(I)c2)c(I)c1)C(=O)O [T3],2569654 mRNA expression,2569654 mRNA [5],upregulated
same,3533 mRNA expression,3533 mRNA,downregulated
O=C(O)c1cccnc1 [niacin],2569654 mRNA expression,2569654 mRNA [5],upregulated
same,9462 mRNA expression,9462 mRNA,upregulated
same,10102 mRNA expression,10102 mRNA,significantly upregulated
same,3533 mRNA expression,3533 mRNA,significantly downregulated
Cc1ccc(C)c(OCCCC(C)(C)C(=O)O)c1 [gemfibrozil],10653 mRNA expression,10653 mRNA [6],downregualted
same,10102 mRNA expression,10102 mRNA,significantly upregulated
same,8701 mRNA expression,8701 mRNA,upregulated
same,7301 mRNA expression,7301 mRNA,down-reregulated
same,9123 mRNA expression,9123 mRNA,upregulated
"C[N+](C)(C)CC(=O)[O-] [betaine, trimethylglycine]",plasma homocysteine concentration,[7],decrease
same,total and LDL cholesterol concentration,[7],small but significant increase
CCCCCCCCCCCCC/C=C/[C@@H](O)[C@H](CO)NC(C)=O [C(2)-ceramide],LPS-induced NO production,RAW 264.7,inhibit
Oc1ccc(C=Cc2cc(O)cc(O)c2)cc1 [Resveratrol],autophosphorylation of 1722,[8],inhibit
NCCS [Cysteamine],inhibition of the glycine cleavage system,glycine cleavage system,potent inhibitor
TNF-α,1261 expression in response to angiogenic/inflammatory stimuli,1261 mRNA,transient upregulation
CC[C@H](C)C(=O)O[C@H]1CCC=C2C=C[C@H](C)[C@H](CC[C@@H]3C[C@@H](O)CC(=O)O3)[C@H]21 [Mevastatin],32345 mRNA expression,32345 mRNA,upregulated
same,6169 mRNA upregulated,6169 mRNA [9],2.4 fold
COc1cc2c(c(OC)c1OC)-c1ccc(OC)c(=O)cc1[C@@H](NC(C)=O)CC2 [Colchicine],vasoconstriction,isolated rat arterioles,33.9%
CC(C)(Sc1cc(C(C)(C)C)c(O)c(C(C)(C)C)c1)Sc1cc(C(C)(C)C)c(O)c(C(C)(C)C)c1 [probucol],9380 mRNA expression,9380 mRNA,upregulated
same,10653 mRNA expression,10653 mRNA [6],downregualted
same,10102 mRNA expression,10102 mRNA,significantly upregulated
same,2552 mRNA expression,2552 mRNA,upregulated
same,7301 mRNA expression,7301 mRNA,down-reregulated
same,9123 mRNA expression,9123 mRNA,upregulated

# — patent publication US20050037946A1, “Methods and compositions for treating cardiovascular disease using 1722, 10280, 59917, 85553, 10653, 9235, 21668, 17794, 2210, 6169, 10102, 21061, 17662, 1468, 12282, 6350, 9035, 1820, 23652, 7301, 8925, 8701, 3533, 9462, 9123, 12788, 17729, 65552, 1261, 21476, 33770, 9380, 2569654, 33556, 53656, …” (Millennium Pharmaceuticals, Inc., priority 2003, published 2005)
